Test [1] has as its target T1, HCV polymerase H544 1a 3X (UniProt P27958).
T1 construct: fused on or other part: 6 His tag at the C-terminus, for the BK (1b) enzyme
As to the kind of experiment: Assay of enzyme (HCV polymerase) inhibitory activity, H544 1a 3X. It counts as biochemical.

The target in test [2] is T2, HCV polymerase H544 1b 3X (Hepatitis C virus genotype 1b, UniProt P26663).
T2 construct: a region encoding NS5B (J Virol 1991 March, 65(3), 1105-13, 544 amino acids after deletion of 47 amino acids on the C-terminal); 6 His (C); made in house; host or cells: Escherichia coli
T2 sequence (P26663 2420-2963): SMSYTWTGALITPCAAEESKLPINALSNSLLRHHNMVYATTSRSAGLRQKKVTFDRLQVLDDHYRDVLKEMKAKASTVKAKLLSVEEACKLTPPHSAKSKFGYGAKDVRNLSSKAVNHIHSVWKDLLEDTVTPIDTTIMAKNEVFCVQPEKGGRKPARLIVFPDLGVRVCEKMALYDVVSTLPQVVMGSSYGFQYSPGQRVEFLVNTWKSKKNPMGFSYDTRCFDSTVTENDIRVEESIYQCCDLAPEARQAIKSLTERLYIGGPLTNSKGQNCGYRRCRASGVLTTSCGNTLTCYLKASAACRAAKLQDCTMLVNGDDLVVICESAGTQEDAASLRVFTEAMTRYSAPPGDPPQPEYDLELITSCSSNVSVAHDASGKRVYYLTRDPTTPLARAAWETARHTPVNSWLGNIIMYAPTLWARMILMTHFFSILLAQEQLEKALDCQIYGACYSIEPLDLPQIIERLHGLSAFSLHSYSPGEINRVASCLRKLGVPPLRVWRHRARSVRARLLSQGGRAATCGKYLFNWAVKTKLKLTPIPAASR
As to the kind of experiment: Assay of enzyme (HCV polymerase) inhibitory activity, H544 1b 3X. It counts as biochemical, HCV BK strain. From the text: The evaluation of the HCV polymerase inhibitory activity of the compound of the present invention is explained in the following. This polymerase is an enzyme coded for by the non-structural protein region called NS5B on the genome RNA of HCV (EMBO J., 15:12-22, 1996).
Using, as a template, a cDNA clone corresponding to the full length genome RNA of HCV BK strain obtained from the blood of a patient with hepatitis C, a region encoding NS5B (J Virol 1991 March, 65(3), 1105-13, 544 amino acids after deletion of 47 amino acids on the C-terminal) was amplified by PCR. The objective gene was prepared by adding a 6 His tag {base pair encoding 6 continuous histidine (His)} to the 3′ end thereof and transformed to Escherichia coli. The Escherichia coli capable of producing the objective protein was cultured. The obtained cells were suspended in a buffer solution and crushed in a microfluidizer. The supernatant was obtained by centrifugation and applied to various column chromatographys {mono-S, Sephacryl S-200 (Pharmacia)}, inclusive of metal chelate chromatography, to give a standard enzyme product.
Using a synthetic primer designed based on the sequence of HCV genomic 3′ untranslated region, a DNA fragment (148 bp) containing polyU and 3′X sequence was entirely synthesized and cloned into plasmid pBluescript SK II (+) (Stratagene). The cDNA encoding full length NS5B, which was prepared in i) above, was digested with restriction enzyme KpnI to give a cDNA fragment containing the nucleotide sequence of from the restriction enzyme cleavage site to the termination codon. This cDNA fragment was inserted into the upstream of 3′ untranslated region of the DNA in pBluescript SK II(+) and ligated. The about 450 bp inserted DNA sequence was used as a template in the preparation of substrate RNA. This plasmid was cleaved immediately after the 3′X sequence, linearized and purified by phenol-chloroform treatment and ethanol precipitation to give DNA.
RNA was synthesized (37° C., 3 hr) by run-off method using this purified DNA as a template, a promoter of pBluescript SK II(+), MEGAscript RNA synthesis kit (Ambion) and T7 RNA polymerase. DNase I was added and the mixture was incubated for 1 hr. The template DNA was removed by decomposition to give a crude RNA product. This crude product was treated with phenol-chloroform and purified by ethanol precipitation to give the objective substrate RNA.
This RNA was applied to formaldehyde denaturation agarose gel electrophoresis to confirm the quality thereof and preserved at −80° C.
A test substance (compound of the present invention) and a reaction mixture (30 μl) having the following composition were reacted at 25° C. for 90 min. 10% Trichloroacetic acid at 4° C. and 1% sodium pyrophosphate solution (150 μl) were added to this reaction mixture to stop the reaction. The reaction mixture was left standing in ice for 15 min to insolubilize RNA. This RNA was trapped on a glass filter (Whatman GF/C and the like) upon filtration by suction. This filter was washed with a solution containing 1% trichloroacetic acid and 0.1% sodium pyrophosphate, washed with 90% ethanol and dried. A liquid scintillation cocktail (Packard) was added and the radioactivity of RNA synthesized by the enzyme reaction was measured on a liquid scintillation counter.
The HCV polymerase inhibitory activity (IC50) of the compound of the present invention was calculated from the values of radioactivity of the enzyme reaction with and without the test substance.
The results are shown in Table 18, wherein each symbol means that IC50 falls within the following range.
Reaction mixture: HCV polymerase (0.5 μg/ml) obtained in i), substrate RNA (5 μg/ml) obtained in ii), ATP (50 μM), GTP (50 μM), CTP (50 μM), UTP (2 μM), [5,6-^3H] UTP (46 Ci/mmol (Amersham), 1 μCi) 20 mM Tris-HCl (pH 7.5), EDTA (1 mM), MgCl2 (5 mM), NaCl (50 mM), DTT (1 mM), BSA (0.01%)

The mark [3] stands for this setting: read-out: H544 1a 3X IC50, 25° C., 90 min, [5,6-3H]UTP incorporation.
Setting [4] is: 25° C., 90 min, [5,6-3H]UTP incorporation, read-out: H544 1a 3X IC50.

Counter-ions that a name gives are not always drawn. Like-named read-outs stand apart in the source and are kept apart here. Bounds are passed on as bounds.

Take `O=C(O)c1cc2nc(-c3ccc(OCc4cc(N5CCCC5=O)ccc4-c4ccc(Cl)cc4)cc3)n(C3CCCCC3)c2s1` [Example 3, 2-{4-[4′-chloro-4-(2-oxopyrrolidin-1-yl)biphenyl-2-ylmethoxy]phenyl}-3-cyclohexyl-3H-thieno[2,3-d]imidazole-5-carboxylic acid hydrochloride]: the values for the IC50 in test [1] (setting [3]) and in test [2] were 100 to 1000 nM and below 100 nM, respectively.

For `O=C(O)c1cc2nc(-c3ccc(OCc4cc(N5CCCC5=O)ccc4N4CCOCC4)cc3)n(C3CCCCC3)c2s1` [Example 5, 3-cyclohexyl-2-{4-[2-morpholino-5-(2-oxopyrrolidin-1-yl)benzyloxy]phenyl}-3H-thieno[2,3-d]imidazole-5-carboxylic acid], the IC50 in test [1] (setting [4]) and in test [2] was 100 to 1000 nM throughout.

Regarding `Cn1c(-c2ccc(OCc3ccccc3)cc2)c(C2CCCCC2)c2sc(C(=O)O)cc21` [Example 12, 5-(4-benzyloxyphenyl)-6-cyclohexyl-4-methyl-4H-thieno[3,2-b]pyrrole-2-carboxylic acid], the IC50 in test [1] (setting [4]) and in test [2] was 100 to 1000 nM in each case.

Turning to `CN(C)C(=O)Cn1c(-c2ccc(OCc3ccccc3)cc2)c(C2CCCCC2)c2sc(C(=O)O)cc21` [Example 14, 5-(4-benzyloxyphenyl)-6-cyclohexyl-4-dimethylcarbamoylmethyl-4H-thieno[3,2-b]pyrrole-2-carboxylic acid], the IC50 in test [1] (setting [4]) and in test [2] was below 100 nM in each case.

Regarding `Cn1c(-c2ccc(OCc3cc(N4CCCC4=O)ccc3N3CCOCC3)cc2)c(C2CCCCC2)c2sc(C(=O)O)cc21` [Example 15, 6-cyclohexyl-4-methyl-5-{4-[2-morpholino-5-(2-oxopyrrolidin-1-yl)benzyloxy]phenyl}-4H-thieno[3,2-b]pyrrole-2-carboxylic acid hydrochloride], the IC50 in test [1] (setting [4]) and in test [2] was below 100 nM in each case.

Consider `CC(=O)N(C)c1ccc(N2CCOCC2)c(COc2ccc(-c3c(C4CCCCC4)c4sc(C(=O)O)cc4n3C)cc2)c1` [Example 17, 5-{4-[5-(N-acetyl-N-methylamino)-2-morpholinobenzyloxy]phenyl}-6-cyclohexyl-4-methyl-4H-thieno[3,2-b]pyrrole-2-carboxylic acid hydrochloride], for which the IC50 in test [1] (setting [3]) and in test [2] was below 100 nM throughout.

For `Cn1c(-c2ccc(OCc3cc(N4CCCC4=O)ccc3N3CCN(S(C)(=O)=O)CC3)cc2)c(C2CCCCC2)c2sc(C(=O)O)cc21` [Example 18, 6-cyclohexyl-5-{4-[2-(4-methanesulfonylpiperazin-1-yl)-5-(2-oxopyrrolidin-1-yl)benzyloxy]phenyl}-4-methyl-4H-thieno[3,2-b]pyrrole-2-carboxylic acid hydrochloride], the IC50 in test [1] (setting [4]) and in test [2] was below 100 nM each time.

On to `Cn1c(-c2ccc(OCc3cc(N)ccc3N3CCN(S(C)(=O)=O)CC3)cc2)c(C2CCCCC2)c2sc(C(=O)O)cc21` [Example 19, 5-(4-[5-amino-2-(4-methanesulfonylpiperazin-1-yl)benzyloxy]phenyl)-6-cyclohexyl-4-methyl-4H-thieno[3,2-b]pyrrole-2-carboxylic acid hydrochloride], for which the IC50 in test [1] (setting [4]) and in test [2] was below 100 nM throughout.

Regarding `CC(=O)N(C)c1ccc(N2CCN(S(C)(=O)=O)CC2)c(COc2ccc(-c3c(C4CCCCC4)c4sc(C(=O)O)cc4n3C)cc2)c1` [Example 20, 5-{4-[5-(N-acetyl-N-methylamino)-2-(4-methanesulfonylpiperazin-1-yl)benzyloxy]phenyl}-6-cyclohexyl-4-methyl-4H-thieno[3,2-b]pyrrole-2-carboxylic acid hydrochloride], the IC50 in test [1] (setting [4]) and in test [2] was below 100 nM throughout.

As for `COc1ccc(-c2c(C3CCCCC3)c3sc(C(=O)O)cc3n2CC(=O)N(C)C)cc1` [Example 21, 6-cyclohexyl-4-dimethylcarbamoylmethyl-5-(4-methoxyphenyl)-4H-thieno[3,2-b]pyrrole-2-carboxylic acid], the IC50 was 100 to 1000 nM in test [1] (setting [4]) and below 100 nM in test [2].

Turning to `Cn1c(-c2ccc(OCc3cc(S(C)(=O)=O)ccc3N3CCOCC3)cc2)c(C2CCCCC2)c2sc(C(=O)O)cc21` [Example 23, 6-cyclohexyl-5-[4-(5-methanesulfonyl-2-morpholinobenzyloxy)phenyl]-4-methyl-4H-thieno[3,2-b]pyrrole-2-carboxylic acid hydrochloride], the IC50 in test [1] (setting [4]) and in test [2] was below 100 nM in each case.

For the molecule `CCOC(=O)c1cc2c(s1)c(C1CCCCC1)c(-c1ccc(OCc3cc(N4CCCC4=O)ccc3N3CCOCC3)cc1)n2C` [Example 24, ethyl 6-cyclohexyl-4-methyl-5-{4-[2-morpholino-5-(2-oxopyrrolidin-1-yl)benzyloxy]phenyl}-4H-thieno[3,2-b]pyrrole-2-carboxylate hydrochloride], the IC50 in test [1] (setting [4]) and in test [2] was 100 to 1000 nM each time.

For the molecule `COc1ccc(-c2c(C3CCCCC3)c3sc(C(=O)O)cc3n2CC(=O)N2CCOCC2)cc1` [Example 25, 6-cyclohexyl-5-(4-methoxyphenyl)-4-morpholinocarbonylmethyl-4H-thieno[3,2-b]pyrrole-2-carboxylic acid], the values for the IC50 in test [1] (setting [4]) and in test [2] were 100 to 1000 nM and below 100 nM, respectively.

As to `CCN1CCN(C(=O)Cn2c(-c3ccc(OC)cc3)c(C3CCCCC3)c3sc(C(=O)O)cc32)CC1` [Example 26, 6-cyclohexyl-4-(4-ethylpiperazin-1-yl)carbonylmethyl-5-(4-methoxyphenyl)-4H-thieno[3,2-b]pyrrole-2-carboxylic acid], the IC50 in test [1] (setting [4]) is 100 to 1000 nM; in test [2], below 100 nM.

Consider `COc1ccc(-c2c(C3CCCCC3)c3sc(C(=O)O)cc3n2CC(=O)N2CCC(N(C)C)CC2)cc1` [Example 27, 6-cyclohexyl-4-(4-dimethylaminopiperidino)carbonylmethyl-5-(4-methoxyphenyl)-4H-thieno[3,2-b]pyrrole-2-carboxylic acid], for which the IC50 in test [1] (setting [4]) and in test [2] was below 100 nM in each case.

`CC(C)C(=O)Nc1ccc(N2CCOCC2)c(COc2ccc(-c3c(C4CCCCC4)c4sc(C(=O)O)cc4n3C)cc2)c1` [Example 29, 6-cyclohexyl-5-[4-(5-isobutyrylamino-2-morpholinobenzyloxy)phenyl]-4-methyl-4H-thieno[3,2-b]pyrrole-2-carboxylic acid hydrochloride]: the IC50 in test [1] (setting [4]) and in test [2] was below 100 nM each time.

`CC(C)C(=O)N(C)c1ccc(N2CCOCC2)c(COc2ccc(-c3c(C4CCCCC4)c4sc(C(=O)O)cc4n3C)cc2)c1` [Example 30, 6-cyclohexyl-5-{4-[5-(N-isobutyryl-N-methylamino)-2-morpholinobenzyloxy]phenyl}-4-methyl-4H-thieno[3,2-b]pyrrole-2-carboxylic acid hydrochloride]: the IC50 in test [1] (setting [4]) and in test [2] was below 100 nM each time.

In test [2], `CC(C(=O)N(C)c1ccc(N2CCOCC2)cc1)n1c(-c2ccc(OCc3ccccc3)cc2)c(C2CCCCC2)c2sc(C(=O)O)cc21` (centres unmarked) [Example 60, 5-(4-benzyloxyphenyl)-6-cyclohexyl-4-{1-[N-methyl-N-(4-morpholinophenyl)carbamoyl]ethyl}-4H-thieno[3,2-b]pyrrole-2-carboxylic acid hydrochloride] showed an IC50 of 100 to 1000 nM.

The values are drawn from US20090036444A1, “5-5-Membered fused heterocyclic compound and use thereof as HCV polymerase inhibitor” (priority 2003, published 2009).
